Test results as given in paper PMC6941357, “An in vitro toolbox to accelerate anti-malarial drug discovery and development” (Malaria Journal, 2020).
Values joined by “and” are separate entries in the source; they are usually repeats but may differ in a detail not shown here. Equal values may be shown once. Read-outs that look alike come from different tables or passages of the source.

What was measured:
[1] = Solubility in biorelevant media; settings: thermodynamic from solid; for solubility at 1 h: 37 °C, fassgf or other biorelevant
Outline: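 Measured at 37 °C with 600 rpm orbital shaking in pH 7.4 PBS, FaSSIF-V2, FeSSIF-V2 and FaSSGF. Sampled at 1 h (FaSSGF) or 5–6 h (other media) after double centrifugation; supernatant quantified by LC–MS against calibration standards, triplicate aliquots.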

[2] = molecular target: CYP3A4 (Homo sapiens, UniProt P08684); assay: Cytochrome P450 inhibition in human liver microsomes; settings: for IC50: highest concentration tested 20 µM; for inhibition at 20 µM: human
Outline: (§1)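 Each compound is incubated with human liver microsomes and a probe substrate whose conversion is mediated by one CYP isoform. Reactions are then quenched with ice-cold acetonitrile, and the metabolite is determined by LC–MS.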

[3] = molecular target: CYP2C19 (Homo sapiens, UniProt P33261); assay: as above; settings: for inhibition at 20 µM: human, pH 7.4
Outline: as §1

[4] = molecular target: CYP2C9 (Homo sapiens, UniProt P11712); assay: as above
Outline: as §1

[5] = Plasma protein binding via ultracentrifugation (UC); type: in vitro ADME, human; settings: pH 7.4
Outline: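 Pooled human plasma (3–4 donors) spiked and ultracentrifuged; protein-free supernate gave Cunbound, parallel tubes kept at 37 °C gave Ctotal and stability (start vs end). Samples matrix-matched 1:1 with opposite blank and quantified against a common calibration curve; fu SD by error propagation.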

[6] = In vitro metabolism (metabolic stability) in human liver microsomes; settings: human, liver microsomes, pH 7.4, HLM CLint, human liver microsomes; average of n = 2 replicates; < 7 means < 15% loss over 60 min
Outline: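 Compound depletion in human liver microsomes was followed by LC–MS at 2–60 min, with cofactor-free controls. First-order depletion rate constants gave in vitro CLint (µL/min/mg protein), corrected to unbound CLint using measured microsomal fu.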

[7] = Octanol/pH 7.4 buffer partition coefficient, shake flask; settings: pH 7.4
Outline: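 Octanol stocks (3-30 mg/mL) were diluted 3- and 10-fold and shaken with equal volumes of pH 7.4 phosphate buffer (67 mM, in 43 mM NaCl) at 37 °C. Both phases were quantified by LC-MS against calibration standards. The coefficient is the mean octanol/buffer concentration ratio, with two time points confirming equilibrium.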

[8] = molecular target: T1, Albumax medium (lipid rich bovine serum albumin) (Bos taurus, UniProt P02769); assay: Binding in Albumax medium via ultracentrifugation; type: in vitro ADME; settings: bovine, isolated protein
T1 construct: purchased Gibco, Thermo Fisher Scientific
Outline: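 Unbound fraction (fu) taken as protein-free supernate concentration over total concentration after ultracentrifuging compound-spiked Albumax at 37 °C (5% or 10% CO2, or air). Analysis used 1:1 mixing with the opposite blank matrix against a common pH 7.4 calibration; degradation judged by start versus end Ctotal.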

[9] = CYP3A4 (midaz) IC50, human liver microsomes, CYP3A4 (midaz)
[10] = CYP3A4 (test) IC50, human liver microsomes, CYP3A4 (test)
[11] = phosphate buffered saline pH 7.4, 37 °C, pH 7.4, aqueous buffer
[12] = microsomes, pH 7.4, CYP3A4 (test) % inhibition at max conc
[13] = human, neat pooled plasma, ultracentrifugation, neat plasma, read-out: Fraction unbound, human plasma

Sequence of CYP2C19 (P33261 whole entry): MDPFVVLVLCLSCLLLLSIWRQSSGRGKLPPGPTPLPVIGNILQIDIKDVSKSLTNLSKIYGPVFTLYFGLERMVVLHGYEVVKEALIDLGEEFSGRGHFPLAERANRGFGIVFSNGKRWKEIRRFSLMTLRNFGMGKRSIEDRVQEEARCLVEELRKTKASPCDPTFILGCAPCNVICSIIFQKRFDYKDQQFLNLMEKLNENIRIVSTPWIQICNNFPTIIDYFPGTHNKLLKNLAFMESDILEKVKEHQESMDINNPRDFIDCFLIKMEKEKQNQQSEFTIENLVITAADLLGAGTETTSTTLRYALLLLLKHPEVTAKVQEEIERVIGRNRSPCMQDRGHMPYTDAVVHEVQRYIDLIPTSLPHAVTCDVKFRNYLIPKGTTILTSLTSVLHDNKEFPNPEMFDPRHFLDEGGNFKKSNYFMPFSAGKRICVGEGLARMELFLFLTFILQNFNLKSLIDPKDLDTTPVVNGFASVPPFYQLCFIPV
Sequence of CYP3A4 (P08684 whole entry, canonical isoform): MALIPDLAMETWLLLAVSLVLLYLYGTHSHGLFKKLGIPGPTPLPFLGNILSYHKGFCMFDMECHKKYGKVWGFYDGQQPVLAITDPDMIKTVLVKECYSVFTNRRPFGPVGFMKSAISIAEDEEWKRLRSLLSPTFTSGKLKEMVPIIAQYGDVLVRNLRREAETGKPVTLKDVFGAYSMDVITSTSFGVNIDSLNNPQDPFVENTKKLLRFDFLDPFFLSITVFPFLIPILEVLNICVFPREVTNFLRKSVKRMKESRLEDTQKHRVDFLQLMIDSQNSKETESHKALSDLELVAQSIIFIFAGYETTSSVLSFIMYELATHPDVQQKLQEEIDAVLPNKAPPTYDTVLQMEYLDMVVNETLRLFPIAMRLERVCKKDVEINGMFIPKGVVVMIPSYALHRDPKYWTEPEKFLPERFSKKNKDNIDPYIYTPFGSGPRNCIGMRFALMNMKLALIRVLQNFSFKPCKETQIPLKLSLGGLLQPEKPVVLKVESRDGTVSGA
T1 sequence (P02769 25-607): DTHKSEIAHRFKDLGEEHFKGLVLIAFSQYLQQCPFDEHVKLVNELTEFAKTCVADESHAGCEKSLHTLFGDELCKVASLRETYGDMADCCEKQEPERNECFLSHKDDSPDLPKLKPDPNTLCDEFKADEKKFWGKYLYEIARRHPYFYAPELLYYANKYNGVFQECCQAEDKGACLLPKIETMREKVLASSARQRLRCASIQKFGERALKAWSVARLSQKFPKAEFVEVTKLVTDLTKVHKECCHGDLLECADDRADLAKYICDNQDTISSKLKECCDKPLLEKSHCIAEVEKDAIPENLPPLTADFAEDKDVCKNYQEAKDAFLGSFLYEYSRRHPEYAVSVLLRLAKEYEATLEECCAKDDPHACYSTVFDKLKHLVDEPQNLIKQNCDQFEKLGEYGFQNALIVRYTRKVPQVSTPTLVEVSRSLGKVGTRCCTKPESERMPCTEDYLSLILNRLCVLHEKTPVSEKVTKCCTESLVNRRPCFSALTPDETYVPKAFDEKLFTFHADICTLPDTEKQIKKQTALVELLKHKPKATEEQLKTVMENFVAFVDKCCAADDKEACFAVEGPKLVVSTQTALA
Sequence of CYP2C9 (P11712 whole entry): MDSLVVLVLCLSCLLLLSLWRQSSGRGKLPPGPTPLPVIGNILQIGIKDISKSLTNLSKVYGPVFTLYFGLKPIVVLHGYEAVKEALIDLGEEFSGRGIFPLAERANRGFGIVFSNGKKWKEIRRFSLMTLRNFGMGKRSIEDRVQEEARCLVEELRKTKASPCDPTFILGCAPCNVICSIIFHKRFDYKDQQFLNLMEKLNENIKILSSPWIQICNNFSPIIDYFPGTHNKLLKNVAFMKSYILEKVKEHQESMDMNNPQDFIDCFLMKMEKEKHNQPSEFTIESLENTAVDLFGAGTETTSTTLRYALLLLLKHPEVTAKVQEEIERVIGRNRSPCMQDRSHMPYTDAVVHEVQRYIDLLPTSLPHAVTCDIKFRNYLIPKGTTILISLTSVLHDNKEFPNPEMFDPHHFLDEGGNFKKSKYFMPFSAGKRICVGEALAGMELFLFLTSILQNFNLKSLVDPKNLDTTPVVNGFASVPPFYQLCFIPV

Compound: C[C@H]1[C@@H](O)O[C@@H]2O[C@@]3(C)CC[C@H]4[C@H](C)CC[C@@H]1[C@@]24OO3 [Dihydroartemisinin]
- solubility at 1 h ([1]; FaSSGF): 140 µg/mL and 492 µM
- IC50 [2, 9]: > 20 µM
- IC50 [2, 10]: > 20 µM
- CYP3A4 (midaz) % inhibition at max conc ([2]; microsomes): nmi
- CYP3A4 (test) % inhibition at max conc ([2]; microsomes): nmi
- IC50 [3]: > 20 µM
- CYP2C19 % inhibition at max conc ([3]; microsomes): nmi
- IC50 [4]: > 20 µM
- CYP2C9 % inhibition at max conc ([4]; microsomes): nmi
- fraction unbound at […] ([5]; human, pooled plasma, ultracentrifugation, instability evident, estimate only, read-out: Fraction unbound, human plasma): 0.21 ± 0.01
- fraction unbound at […] ([5]; human plasma, fraction unbound, read-out: Plasma fu): 0.21
- microsomal CLint at 1 µM [6]: 16.6 µL/min/mg
- logD ([7]; octanol/pH 7.4 buffer): 2.3
- logD ([7]; octanol/pH 7.4 phosphate buffered saline): 2.3
- fraction unbound at […], 500 ng/mL ([8]; pH 7.4, instability evident, estimate only): 0.34 ± 0.018

Compound: CC(C)NC(=N)NC(=N)Nc1ccc(Cl)c(Cl)c1 [Chlorproguanil]
- solubility at 1 h ([1]; FaSSGF): > 2000 µg/mL and > 6940 µM
- solubility ([1]; FaSSGF, FaSSIF-V2, FeSSIF-V2 and PBS pH 7.4, 37 °C, pH 7.4, aqueous buffer): > 2000 µg/mL
- solubility ([1]; FaSSIF-V2, 37 °C, fassif): 1100 µg/mL and 3810 µM
- solubility ([1]; FeSSIF-V2, 37 °C, fessif): 1670 µg/mL and 5780 µM
- solubility [1, 11]: 1420 µg/mL and 4930 µM
- IC50 [2, 9]: > 20 µM
- IC50 [2, 10]: > 20 µM
- inhibition at 20 µM [2, 12]: 41%
- CYP3A4 (midaz) % inhibition at max conc ([2]; microsomes): nmi
- IC50 [3]: > 20 µM
- inhibition at 20 µM ([3]; microsomes): 39%
- IC50 [4]: > 20 µM
- CYP2C9 % inhibition at max conc ([4]; microsomes): nmi
- fraction unbound at […] [5, 13]: 0.1 ± 0.007
- microsomal CLint at 1 µM [6]: < 7 µL/min/mg
- logD ([7]; octanol/pH 7.4 buffer): 1.1
- fraction unbound at […], 500 ng/mL ([8]; pH 7.4): 0.5 ± 0.02

Compound: N#Cc1cc(NC(=O)[C@H]2c3ccccc3C(=O)N(CC(F)(F)F)[C@@H]2c2cccnc2)ccc1F [SJ733]
- solubility at 1 h ([1]; FaSSGF): > 2000 µg/mL and > 4270 µM
- solubility ([1]; FaSSIF-V2, 37 °C, fassif): 101 µg/mL and 216 µM
- solubility ([1]; FeSSIF-V2, 37 °C, fessif): 119 µg/mL and 254 µM
- solubility [1, 11]: 115 µg/mL and 246 µM
- IC50 [2, 9]: > 20 µM
- IC50 [2, 10]: > 20 µM
- inhibition at 20 µM ([2]; microsomes, pH 7.4, CYP3A4 (midaz) % inhibition at max conc): 33%
- inhibition at 20 µM [2, 12]: 37%
- IC50 [3]: > 20 µM
- inhibition at 20 µM ([3]; microsomes): 38%
- IC50 [4]: > 20 µM
- inhibition at 20 µM ([4]; human, microsomes, pH 7.4): 33%
- fraction unbound at […] [5, 13]: 0.17
- microsomal CLint at 1 µM [6]: 142 µL/min/mg
- logD ([7]; octanol/pH 7.4 buffer): 3.9
- fraction unbound at […], 500 ng/mL ([8]; pH 7.4): 0.4 ± 0.04
